Measurements: patent US7365162B2, “Stabilized bioactive peptides and methods of identification, synthesis, and use” (priority 1998, dated 2008)
Read-outs that look alike come from different tables or passages of the source. No end group written: not given here.

B1: pPep13-anti: pPep13 insert recloned in pLAC11 with ATG start codon changed to ACG (SEQ ID NO:32) (nucleic acid)
DNA: TACTATAGATCTACGGACCGTGAAGTGATGTGTGCGGCAAAACAGGAATGGAAGGAACGAACGCCATAGGCCGCGTAATAAGAATTCTCGACA
modifications: expressed or natural sequence
B2: pPep5-anti: pPep5 insert recloned in pLAC11 with ATG start codon changed to ACG (SEQ ID NO:30) (nucleic acid)
DNA: TACTATAGATCTACGTGGCGGGACTCATGGATTAAGGGTAGGGACGTGGGGTTTATGGGTTAAAATAGTTTGATAATAAGAATTCTCGACA
modifications: expressed or natural sequence
B3: pPep1-anti: pPep1 insert recloned in pLAC11 with ATG start codon changed to ACG (SEQ ID NO:29) (nucleic acid)
DNA: TACTATAGATCTACGGTCACTGAATTTTGTGGCTTGTTGGACCAACTGCCTTAGTAATAGTGGAAGGCTGAAATTAATAAGAATTCTCGACA
modifications: expressed or natural sequence
B4: Rop: small 63 amino acid four-helix bundle protein from the ColEl replicon, used as stabilizing group (protein, UniProt P03051 1-63, looked up)
Regulatory protein rop: MTKQEKTALNMARFIRSQTLTLLEKLNELDADEQADICESLHDHADELYRSCLARFGDDGENL
B5: pPep12-anti: pPep12 insert recloned in pLAC11 with ATG start codon changed to ACG (SEQ ID NO:31) (nucleic acid)
DNA: TACTATAGATCTACGAACGGCCGAACCAAACGAATCCGGGACCCACCAGCCGCCTAAACAGCTACCAGCTGTGGTAATAAGAATTCTCGACA
modifications: expressed or natural sequence
B6: pPep19-anti: pPep19 insert recloned in pLAC11 with ATG start codon changed to ACG (SEQ ID NO:33) (nucleic acid)
DNA: TACTATAGATCTACGAGGGGCGCCAACTAAGGGGGGGGGAAGGTATTTGTCCCGTGCATAATCTCGGGTGTTGTCTAATAAGAATTCTCGACA
modifications: expressed or natural sequence

Columns and labels:
ATPase = conditions: read-out: Binding Constant; Inhibited Protein: ATPase; cited from earlier work
E. coli [1] = format: cell-based; conditions: ALS225 cells, minimal inducing plate (M9 glycerol Amp IPTG), grid patching
E. coli [2] = test: Growth rate analysis in liquid media of cells expressing induced peptides; format: cell-based; conditions: for % Inhibition (of the growth rate): ALS225, minimal media, 1 mM IPTG, versus induced pLAC11 vector, average of three determinations; for % inhibition versus pLAC11 control (inhibitory peptide): induced inhibitor; for % inhibition versus pLAC11 control (inhibitory peptide) / % inhibition versus pLAC11 control (antisense construct): growth rate; for % inhibition versus pLAC11 control (antisense construct): ATG start codon converted to ACG, induced
Calpain = conditions: Inhibited Protein: Calpain; read-out: Binding Constant; cited from earlier work
galanin receptor = test: Radio immunoassay, displacement of radiolabeled galanin from its receptor; format: binding
Description: Radio immunoassays (RIAs) were performed to determine the ability of galanin and its APP derivatives to displace radiolabeled galanin from its receptor.

Nicotinic Acetylcholine = conditions: read-out: Binding Constant; cited from earlier work
[3] = Steif et al. 1993; cited from earlier work

Molecule	Type (one day / two day inhibitor) (E. coli [1])	% Inhibition (of the growth rate) (E. coli [2])	further results
Myotoxin (29-42)	–	–	Kd (ATPase): 19 µM
pPep6: 42 aa inhibitor peptide (SEQ ID NO:39); last 25 aa could form a hydrophobic membrane-spanning domain (MSGGHVTRECKSAMSNRWIYVIRILMFDSLSSISFNAVVYHS; also: stabilized peptide)	1 Day (able to prevent the growth of the E. coli bacteria at 24 hours)	27%	–
pPep17: 12 aa inhibitor peptide (SEQ ID NO:51), C-terminal proline (MLGLEATYPFNP; stabilized peptide)	1 Day (able to prevent the growth of the E. coli bacteria at 24 hours)	28%	–
SCP (153-180)	–	–	Kd (Calpain): 30 nM
pPep7: 6 aa inhibitor peptide (SEQ ID NO:40) (MYLFIG; stabilized peptide)	1 Day (able to prevent the growth of the E. coli bacteria at 24 hours)	26%	–
pPep10: 20 aa inhibitor peptide (SEQ ID NO:45) (MIGGSLSFAWAIVCNKNSHV; stabilized peptide)	1 Day (able to prevent the growth of the E. coli bacteria at 24 hours)	24%	–
pPep13: 18 aa inhibitor peptide (SEQ ID NO:48), C-terminal proline (MDREVMCAAKQEWKERTP; stabilized peptide)	1 Day (able to prevent the growth of the E. coli bacteria at 24 hours)	28%	% inhibition versus pLAC11 control (inhibitory peptide) (E. coli [2]): 28%
pPep8: 21 aa inhibitor peptide (SEQ ID NO:43) (MLLFGGDCGKAGYFTVLPSR; stabilized peptide)	1 Day (able to prevent the growth of the E. coli bacteria at 24 hours)	29%	–
pPep19: 5 aa inhibitor peptide (SEQ ID NO:52) (MRGAN; stabilized peptide)	1 Day (able to prevent the growth of the E. coli bacteria at 24 hours)	29%	% inhibition versus pLAC11 control (inhibitory peptide) (E. coli [2]): 29%
pPep12: 14 aa two day inhibitor peptide (SEQ ID NO:46), two prolines near the C-terminus; printed pPep22 in Table 10 (MNGRTKRIRDPPAA; stabilized peptide)	two day	82%	Type (one day / two day inhibitor) (E. coli [1]; listed as pPep22): 2 Day (able to prevent the growth of the E. coli bacteria at 48 hours); % inhibition versus pLAC11 control (inhibitory peptide) (E. coli [2]): 80%
galanin with the APP (Ala-Pro-Pro) motif at the amino terminus [APP-galanin]	–	–	Ki (galanin receptor): 6.42 nM
α-Conotoxin GIA	–	–	Kd (Nicotinic Acetylcholine): 1 nM
pPep5: 16 aa inhibitor peptide encoded by clone pPep5 (SEQ ID NO:36) (MWRDSWIKGRDVGFMG; stabilized peptide)	1 Day (able to prevent the growth of the E. coli bacteria at 24 hours)	24%	% inhibition versus pLAC11 control (inhibitory peptide) (E. coli [2]): 23%
B1	–	–	% inhibition versus pLAC11 control (antisense construct) (E. coli [2]): 0%
B2	–	–	% inhibition versus pLAC11 control (antisense construct) (E. coli [2]): 0%
B3	–	–	% inhibition versus pLAC11 control (antisense construct) (E. coli [2]): 0%
B4	–	–	midpoint temperature of denaturation, Tm [3]: about 71 °C
B5	–	–	% inhibition versus pLAC11 control (antisense construct) (E. coli [2]): 0%
B6	–	–	% inhibition versus pLAC11 control (antisense construct) (E. coli [2]): 0%
